# Reference: patent publication EP0256847B1, “Oxytocin and vasopressin antagonists” (Merck & Co., Inc., priority 1986, dated 1988)
# *1 amine or outer side, *2 acyl side, *3 side chain or, on linkers, in order; H or OH if unused. Where a SMILES comes first, the peptide text is derived from it. [ ]: non-standard residue; d: D form. ξ: configuration not given here. X2 = O=C([C@@H]1CCCNN1[*:1])[*:2]; ξN(OH)Ile(3ξ) = CCC(C)C(NO)C(=O)O; X1 = O=C([C@H]1CCCNN1[*:1])[*:2]; dNMeF = CN[C@H](Cc1ccccc1)C(=O)O; NMeF = CN[CH](Cc1ccccc1)C(=O)O; X3 = O=C(C1CCCNN1[*:1])[*:2]
# Target: oxytocin receptor
# Assay: [³H]Oxytocin binding assay, crude membrane preparation of rat uterus
# Details: concentration of test compound to inhibit [³H]oxytocin binding by 50%; rat uterus membranes; read-out: IC₅₀ [³H]OT (uterus)
# Excerpt: Oxytocin receptors have been identified in mammalian uterine tissue through the use of in vitro radioligand binding assays. These receptor binding sites mediate the contractile response of the uterine myometrium to oxytocin. […] The assay uses a crude membrane preparation of rat uterus as the source of oxytocin receptors. […]
row,SMILES,IC50
1,CC[C@H](C)[C@@H]1NC(=O)[C@@H](Cc2ccccc2)NC(=O)[C@@H]2CCCN2C(=O)[C@@H](Cc2ccccc2)N(C)C(=O)[C@@H]2CCCNN2C(=O)[C@H]2CCCNN2C1=O [Example 9] (cyclo([X1][X2][dNMeF]P[dF]I)),170 ± 15 nM
2,CCC(C)C1C(=O)N2NCCCC2C(=O)N2NCCCC2C(=O)N(C)C(Cc2ccccc2)C(=O)N2CCCC2C(=O)NC(Cc2ccccc2)C(=O)N1O (centres unmarked) [Formula I] (cyclo([ξN(OH)Ile(3ξ)][X3][X3][NMeF]PF); configuration not given here),370 ± 70 nM
